Test results from US10894255B2, “Leukocyte and microparticles fractionation using microfluidics” (Nanyang Technological University, priority 2015, dated 2021).

Experiments:
Type in all cases: cell-based, human
[1] = test system: DFF-purified neutrophils rolling on E-selectin; test: Microfluidic neutrophil rolling assay on E-selectin-coated microchannel; details: for Neutrophil rolling speed on E-selectin: DFF-sorted neutrophils treated with glucose 30 mM, TNF-α 10 ng/mL or PMA 1 μM, shear 2 dynecm^−2, compared with healthy neutrophils, P<0.005
Text: In another aspect, the present invention also relates to a microfluidic flow channel, wherein its inner wall is coated with E-selectin. Such channel may have a length of at least 0.1 cm. Preferably, the channel has a length of 0.5-2 cm. The width may be at least 200 μm, preferably between 350-500 μm. The channel height may be at least 40 μm, preferably between 45-75 μm and more preferably the height is 60 μm. An example to determine the rolling speed by using an E-selectin coated channel is given below. Briefly, a straight microchannel (1 cm length by 400 μm width by 60 μm height) can be coated with E-selectin (50 μg/mL, Peprotech) for 1 h at 4° C. and blocked with 0.5% BSA in PBS for 30 min at room temperature. After blocking, the channel can be connected to a syringe loaded with 0.1% BSA in PBS to prime and wash away excess E-selectin in the channel. For rolling assay, CaCl2 (20 μM, Sigma-Aldrich) can be added to the DFF-purified neutrophils to facilitate the calcium-dependent interactions of neutrophil binding and rolling on E-selectin. ˜10-20 μL of DFF-purified neutrophils (˜10^6 cells/mL) can be loaded at the inlet reservoir and the syringe can be set to withdraw at 2.6 μL/min (˜2 dynecm^−2) to initiate neutrophil rolling. Phase contrast image can be captured for 30 s at the centre of the microchannel every 0.5 s interval (total of 61 frames) at 20× magnification using MetaMorph software (Molecular Devices). […] The neutrophils can then be washed at 1000×g for 4 min and resuspended to a concentration of ˜10^6 cells/mL with 20 μM CaCl2 for rolling assay.
To study neutrophil rolling phenotype on E-selectin, a straight microchannel (1 cm (l)×400 μm (w)×60 μm (h)) with recombinant human E-selectin (50 μg/mL) was coated to simulate flow conditions in post capillary venules (˜1-10 dynecm^−2). DFF-sorted neutrophils were pumped into the channel at physiological shear conditions (2 dynecm^−2) and timelapse imaging was used to capture neutrophil rolling. A MATLAB tracking algorithm was developed to track neutrophil rolling trajectories and speed measurement for high throughput single cell analysis. […] These differences in rolling phenotypes were further investigated by measuring neutrophil PSGL-1 expression, which is known to mediate leukocyte rolling on E-selectin, as well as CD11b, a Mac-1 integrin expressed on leukocytes that supports adhesion to E-selectin.
After having established that neutrophils from T2DM patients rolled faster on E-selectin as compared to healthy subjects, it was determined if these functional differences can be associated to clinical conditions by analyzing rolling speed frequencies in T2DM patients that are higher than the average rolling speed of healthy subjects (≥5 μm/sec). […]

[2] = test system: CD11b expression on neutrophils; test: Flow cytometric analysis of CD11b expression on healthy and treated neutrophils; details: glucose 30 mM, TNF-α 10 ng/mL or PMA 1 μM treated vs healthy neutrophils; flow cytometry
Description: (§1) (A) Image overlay (60× magnification) from captured cell rolling videos highlight distinct differences in rolling trajectories between healthy and TNF-α-treated neutrophils. (B) Cumulative frequency curves of neutrophil rolling speed for healthy, glucose-treated (30 mM), TNF-α-treated (10 ng/mL) and PMA-treated (1 μM) neutrophils. […] Flow cytometric analysis of (C) PSGL-1 and (D) CD11b expression on healthy and treated neutrophils. Cells were incubated with mouse APC anti-human PSGL-1 IgG2a/mouse APC IgG2a isotype and FITC mouse anti-human CD11b (activated) IgG1/FITC mouse IgG1 isotype.
(§2) To study neutrophil rolling phenotype on E-selectin, a straight microchannel (1 cm (l)×400 μm (w)×60 μm (h)) with recombinant human E-selectin (50 μg/mL) was coated to simulate flow conditions in post capillary venules (˜1-10 dynecm^−2). DFF-sorted neutrophils were pumped into the channel at physiological shear conditions (2 dynecm^−2) and timelapse imaging was used to capture neutrophil rolling. A MATLAB tracking algorithm was developed to track neutrophil rolling trajectories and speed measurement for high throughput single cell analysis. […]

[3] = test system: PSGL-1 expression on neutrophils; test: Flow cytometric analysis of PSGL-1 expression on healthy and treated neutrophils; details: glucose 30 mM, TNF-α 10 ng/mL or PMA 1 μM treated vs healthy neutrophils; flow cytometry
Description: as §1, §2

CN(C)C(=N)N=C(N)N [metformin]
Average rolling speed of drug-treated neutrophils ([1]; DFF-purified neutrophils of healthy subjects incubated with metformin 1 mM or pravastatin 20 μM for 1 h, vs untreated controls, all paired observations, P<0.05): higher than controls

CCCCCCCCCCCCCC(=O)O[C@@H]1[C@@H](C)[C@@]2(O)[C@@H](C=C(CO)C[C@]3(O)C(=O)C(C)=C[C@@H]23)[C@@H]2C(C)(C)[C@]12OC(C)=O [PMA]
Neutrophil CD11b level [2]: higher increase
Neutrophil rolling speed on E-selectin [1]: did not roll, but instead adhered firmly on E-selectin
PSGL-1 expression on neutrophils [3]: downregulation was more significant

tumor necrosis factor alpha [TNF-α]
Neutrophil rolling speed on E-selectin [1]: higher than healthy neutrophils
Neutrophil rolling trajectories on E-selectin ([1]; TNF-α-activated neutrophils vs healthy neutrophils (steady rolling in a straight path)): discontinuous with “flipping” motions
PSGL-1 expression on neutrophils [3]: decreased
